Results: paper PMC2425470 (Nucleic Acids Research, 2008)

Columns and labels:
[1] = target: T1, CF Im25 (25 kDa subunit of human cleavage factor Im; CPSF5; NUDT21) (Homo sapiens, UniProt O43809); assay: steady-state tryptophan fluorescence titration; assay type: binding
[2] = target: T1, CF Im25 (25 kDa subunit of human cleavage factor Im; CPSF5; NUDT21); assay: […] Å crystal structure; assay type: binding

T1 sequence (O43809 whole entry): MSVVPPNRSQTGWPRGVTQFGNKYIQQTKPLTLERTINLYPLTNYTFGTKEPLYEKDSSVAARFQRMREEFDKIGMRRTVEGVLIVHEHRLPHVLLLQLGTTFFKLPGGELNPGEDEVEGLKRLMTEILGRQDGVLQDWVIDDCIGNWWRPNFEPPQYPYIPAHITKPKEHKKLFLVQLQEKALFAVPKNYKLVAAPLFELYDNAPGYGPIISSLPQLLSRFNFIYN

Compound: Nc1ncnc2c1ncn2[C@@H]1O[C@H](COP(=O)(O)OP(=O)(O)OP(=O)(O)O)[C@@H](O)[C@H]1O [ATP]
- Kd [1]: 1530 ± 180 µM

Compound: Nc1ncnc2c1ncn2[C@@H]1O[C@H](COP(=O)(O)OP(=O)(O)OP(=O)(O)OP(=O)(O)OC[C@H]2O[C@@H](n3cnc4c(N)ncnc43)[C@H](O)[C@@H]2O)[C@@H](O)[C@H]1O [Ap4A]
- Kd [2]: 2.44 ± 0.49 µM
